# Article PMC12655637, “Design, Synthesis, and Mechanistic Study of Novel Ciprofloxacin/Thiazole Chalcone Hybrids as Potential Anticancer Agents” (Pharmaceuticals, 2025)
# pIC50: −log10 of the molar value.
# Key:
# ACHN = assay: NCI-60 screening, one-dose (10 µM) and five-dose, SRB; format: cell-based, human
# UACC-62 = assay: as above; format: cell-based
# OVCAR-3 = assay: as above; format: cell-based
# NCI-H522 = assay: as above; format: cell-based, human
# [1] = system: 60 human cancer cell lines; assay: NCI-60 screening, full panel (mean growth, MID a, ranges over all lines)
# CAKI-1 = assay: NCI-60 screening, one-dose (10 µM) and five-dose, SRB; format: cell-based
# RXF 393 = assay: as above; format: cell-based; settings: Homo sapiens; 10 μM; RXF 393, Renal Cancer; read-out: Growth percentage
# MDA-MB-435 = assay: as above; format: cell-based; settings: MDA-MB-435
# SF-268 = assay: as above; format: cell-based, human
# SK-MEL-28 = assay: as above; format: cell-based, human
# OVCAR-8 = assay: as above; format: cell-based, human
# OVCAR-4 = assay: as above; format: cell-based, human
# A549/ATCC = assay: as above; format: cell-based, human
# NCI-H23 = assay: as above; format: cell-based, human
# U251 = assay: as above; format: cell-based, human; settings: Homo sapiens, U-251
# [2] = Homo sapiens, five-dose, read-out: LC50 (the source's name)
# [3] = Homo sapiens, five-dose, UACC-62
# [4] = Homo sapiens, five-dose, OVCAR-3
# [5] = Homo sapiens, five-dose, NCI-H522
# [6] = Homo sapiens, five-dose, CAKI-1
# [7] = Homo sapiens, five-dose, SF-268
# [8] = Homo sapiens, five-dose, SK-MEL-28
# [9] = Homo sapiens, five-dose, OVCAR-8
# [10] = Homo sapiens, five-dose, OVCAR-4
# [11] = Homo sapiens, five-dose, NCI-H23
structure (smiles),measurement,setting,value
"Cc1nc(SCC(=O)N2CCN(c3cc4c(cc3F)c(=O)c(C(=O)O)cn4C3CC3)CC2)sc1C(=O)/C=C/c1cccc(Cl)c1 [Compound 4b, (E)-7-(4-(2-((5-(3-(3-Chlorophenyl)acryloyl)-4-methylthiazol-2-yl)thio)acetyl)piperazin-1-yl)-1-cyclopropyl-6-fluoro-4-oxo-1,4-dihydroquinoline-3-carboxylic Acid]",activity at 10 µM,"ACHN; Homo sapiens, 10 μM, Renal Cancer, read-out: Growth percentage",99.1%
same,GI50,"ACHN; Homo sapiens, five-dose",> 100 µM
same,pIC50,"ACHN; Homo sapiens, five-dose",< 4.00
same,CC50,ACHN; [2],> 100 µM
same,TGI,ACHN; five-dose,100.0 µM
same,activity at 10 µM,"UACC-62; Homo sapiens, 10 μM, UACC-62, Melanoma, read-out: Growth percentage",76.3%
same,GI50,UACC-62; [3],20.9 µM
same,pIC50,UACC-62; [3],< 4.00
same,CC50,"UACC-62; Homo sapiens, five-dose, UACC-62, read-out: LC50 (the source's name)",> 100 µM
same,TGI,"UACC-62; five-dose, UACC-62",100.0 µM
same,activity at 10 µM,"OVCAR-3; Homo sapiens, 10 μM, OVCAR-3, Ovarian Cancer, read-out: Growth percentage",13.9%
same,GI50,OVCAR-3; [4],22.9 µM
same,pIC50,OVCAR-3; [4],4.38
same,CC50,"OVCAR-3; Homo sapiens, five-dose, OVCAR-3, read-out: LC50 (the source's name)",> 100 µM
same,TGI,"OVCAR-3; five-dose, OVCAR-3",52.5 µM
same,activity at 10 µM,"NCI-H522; Homo sapiens, 10 μM, NCI-H522, Non-Small-Cell Lung Cancer, read-out: Growth percentage",98.5%
same,GI50,NCI-H522; [5],> 100 µM
same,pIC50,NCI-H522; [5],< 4.00
same,LC50 (concentration killing 50% of cells),NCI-H522; [5],> 100 µM
same,TGI,"NCI-H522; five-dose, NCI-H522",100.0 µM
same,CC50,"[1]; Homo sapiens, read-out: LC50",0.6 to 100 µM
same,activity at 10 µM,"[1]; Homo sapiens, read-out: Mean growth percentage",49.6%
same,Full-panel MG-MID,[1]; mean sensitivity across all cell lines in the panel,70.3 µM
same,activity at 10 µM,"CAKI-1; Homo sapiens, 10 μM, CAKI-1, Renal Cancer, read-out: Growth percentage",102%
same,GI50,CAKI-1; [6],87.1 µM
same,pIC50,CAKI-1; [6],< 4.00
same,CC50,"CAKI-1; Homo sapiens, five-dose, CAKI-1, read-out: LC50 (the source's name)",> 100 µM
same,TGI,"CAKI-1; five-dose, CAKI-1",100.0 µM
same,activity at 10 µM,RXF 393,-8.1%
same,GI50,MDA-MB-435; Homo sapiens,3.5 µM
same,pIC50,MDA-MB-435; Homo sapiens,5.13
same,CC50,MDA-MB-435; [2],> 100 µM
same,TGI,MDA-MB-435; five-dose,52.5 µM
same,activity at 10 µM,"SF-268; Homo sapiens, 10 μM, SF-268, CNS Cancer, read-out: Growth percentage",76.1%
same,GI50,SF-268; [7],22.4 µM
same,pIC50,SF-268; [7],4.27
same,CC50,"SF-268; Homo sapiens, five-dose, SF-268, read-out: LC50 (the source's name)",> 100 µM
same,TGI,"SF-268; five-dose, SF-268",93.3 µM
same,activity at 10 µM,"SK-MEL-28; Homo sapiens, 10 μM, SK-MEL-28, Melanoma, read-out: Growth percentage",84.1%
same,GI50,SK-MEL-28; [8],26.9 µM
same,pIC50,SK-MEL-28; [8],4.06
same,CC50,"SK-MEL-28; Homo sapiens, five-dose, SK-MEL-28, read-out: LC50 (the source's name)",> 100 µM
same,TGI,"SK-MEL-28; five-dose, SK-MEL-28",100.0 µM
same,activity at 10 µM,"OVCAR-8; Homo sapiens, 10 μM, OVCAR-8, Ovarian Cancer, read-out: Growth percentage",46.1%
same,GI50,OVCAR-8; [9],> 100 µM
same,pIC50,OVCAR-8; [9],< 4.00
same,CC50,"OVCAR-8; Homo sapiens, five-dose, OVCAR-8, read-out: LC50 (the source's name)",> 100 µM
same,TGI,"OVCAR-8; five-dose, OVCAR-8",100.0 µM
same,activity at 10 µM,"OVCAR-4; Homo sapiens, 10 μM, OVCAR-4, Ovarian Cancer, read-out: Growth percentage",106%
same,GI50,OVCAR-4; [10],> 100 µM
same,pIC50,OVCAR-4; [10],< 4.00
same,CC50,"OVCAR-4; Homo sapiens, five-dose, OVCAR-4, read-out: LC50 (the source's name)",> 100 µM
same,TGI,"OVCAR-4; five-dose, OVCAR-4",100.0 µM
same,activity at 10 µM,"A549/ATCC; Homo sapiens, 10 μM, Non-Small-Cell Lung Cancer, read-out: Growth percentage",82.4%
same,GI50,"A549/ATCC; Homo sapiens, five-dose",> 100 µM
same,pIC50,"A549/ATCC; Homo sapiens, five-dose",< 4.00
same,CC50,A549/ATCC; [2],> 100 µM
same,TGI,A549/ATCC; five-dose,100.0 µM
same,activity at 10 µM,"NCI-H23; Homo sapiens, 10 μM, NCI-H23, Non-Small-Cell Lung Cancer, read-out: Growth percentage",54%
same,GI50,NCI-H23; [11],> 100 µM
same,pIC50,NCI-H23; [11],< 4.00
same,LC50 (50% lethal concentration),NCI-H23; [11],> 100 µM
same,TGI,"NCI-H23; five-dose, NCI-H23",100.0 µM
same,activity at 10 µM,"U251; 10 μM, U251, CNS Cancer, read-out: Growth percentage",41.9%
same,GI50,"U251; five-dose, U251",34.7 µM
same,pIC50,"U251; five-dose, U251",< 4.00
same,CC50,"U251; five-dose, U251, read-out: LC50 (the source's name)",> 100 µM
